Data as given in patent US20210378992A1, “METHODS FOR TREATING A SUBTYPE OF SMALL CELL LUNG CANCER” (Auransa Inc., priority 2018, published 2021).

What was measured:
[1] = tested on: human small cell lung cancer sample LU5243; experiment: In vivo patient derived xenograft (PDX) study, LU5243 (predicted responder); parameters: species or system mice; details: pentamidine 10 or 20 mg/kg IP QD, FIGS. 1 and 2
Protocol: 50 mice were enrolled in the study. 25 mice were randomly allocated to each of two human small cell lung cancer tumor models: LU5181 and LU5243. […] However, expression profile of human LU5243, another SCLC tumor sample, successfully matched with the predicted gene expression signature for pentamidine (e.g., as described above, and in Table 1 and Table 2).
Randomization of the 50 mice was performed using the multi-task method in the Study Log software on day 0. Average tumor volume (mm^3) for each group ±SD at randomization was as follows. […]
Tumor cryovials containing tumor cells were thawed and prepared for inoculation into mice. Cells were washed in PBS, counted, and re-suspended in cold PBS at concentrations of 100,000 viable cells/100 μL. […]
Mice were monitored weekly for palpable tumors, or any changes in appearance or behavior. Once tumors were palpable, they were measured twice a week using calipers. Tumor volume was calculated using the following equation (longest diameter×shortest diameter^2)/2.
Stock solution of pentamidine was made in water at 10 mg/mL. Amount needed for dosing for one week was calculated and was diluted with PBS. […]
Body weight was measured twice a week. […]
For all animals, tumors were collected, weighed, weight recorded and snap frozen. […]

[2] = tested on: biomarker genes of Tables 1, 2 and 3 (INSM1, GADD45G, C1QL1, STAT6, SMAD3, RNF43 and others); experiment: Biomarker gene expression after dosing of pentamidine in human SCLC PDX study; type: in vivo, mice; details: SCLC subtype sensitive to pentamidine
Source text: A computational model was constructed to identify patient subpopulations of small cell lung cancer, leveraging data from 5 different datasets of treatment-naïve human small cell lung cancer biopsies (Gene Expression Omnibus identifiers GSE30219, GSE43346, GSE50451; George et al. (2015) Nature 524:47-53; and Rudin et al. (2012) Nat. Genet. 44:1111-1116). Pentamidine was a strong match to one SCLC subpopulation identified by the model. Potential biomarker genes for each subpopulation were discovered using another modeling approach. […] Among the 41 genes (see Tables 1, 2 and 3), the following six genes were selected for further study: INSM1, GADD45G, C1QL1, STAT6, SMAD3 and RNF43.
For all animals, tumors were collected, weighed, weight recorded and snap frozen. Blood for plasma isolation was taken from each animal at 4 hours after dosing. All samples collected from this study were stored in −80° C. For Group01-03, any time that an animal has to be taken down prior to normal end of study termination, the animal was dosed and sampled 4 hours after the dose was given. For group04, tumors were collected 4 hours after the third dose was given. Tumors were weighed and snap-frozen.

For `N=C(N)c1ccc(OCCCCCOc2ccc(C(=N)N)cc2)cc1` [Pentamidine, 1,5-Bis(4-amidinophenoxy)pentane], the “efficacy in PDX model (tumor volume)” value [1] was “significant efficacy”, the “expression of genes in Table 1 (INSM1, GADD45G, C1QL1) upon treatment with pentamidine” value ([2]; high expression biomarkers) was “repressed nearly to normal levels” and the “expression of genes in Table 2 (STAT6, SMAD3, RNF43) upon treatment with pentamidine” value ([2]; low expression biomarkers) was “increased nearly to normal levels”.
